Reference: PMC2683593 (The Journal of neuroscience : the official journal of the …, 2009)
Values joined by “and” are separate entries in the source; they are usually repeats but may differ in a detail not shown here. Equal entries are not always repeated. “Also recorded” adds a separate entry of the source. Where two headings read alike, the source gives them in different places.

What was measured:
Type in all cases: cell-based, Swiss-Webster mice
cerebrocortical neurons [1] = system: cerebrocortical neurons
cerebrocortical neurons [2] = system: cerebrocortical neurons; remark: listed apart in the source
cerebrocortical neurons [3] = assay: Viable neuron count by fluorescein diacetate staining; settings: read-out: EC50 for decreasing the live neuron count, DIV-9, 95% CI 38.4–176 μM
cerebrocortical neurons [4] = assay: Intracellular Ca2+ monitoring
NMDA receptors = assay: Single-channel cell-attached patch recording of NMDA receptor currents
cerebrocortical neurons [5] = assay: Membrane potential assay
Src kinase = system: Src kinase
cerebrocortical neurons [6] = assay: Intracellular sodium concentration
[7] = 15 min preincubation with 10 μM PP2 or PP3, after PbTx-2
[8] = 15 min preincubation with 10 μM PP2 or PP3, before PbTx-2

O=C(O)c1ccc2c3c1cccc3c(=O)n1c3ccccc3nc21 [STO-609, 1,8-naphthoylene benzimidazole-3-carboxylic acid]
effect on PbTx-2 enhanced neurite outgrowth (cerebrocortical neurons [1]): completely blocked

CN[C@H](CC(=O)O)C(=O)O [NMDA]
sensitivity to NMDA-induced LDH efflux (cerebrocortical neurons [2]; 2, 4 and 6 DIV cultures, after 2 h exposure or at 24 h post-exposure): little sensitivity | maximal LDH efflux (cerebrocortical neurons [2]; DIV-9 cultures, 24 h after initiation of 2 h NMDA exposure): 247 ± 10.5 % of control | EC50 (cerebrocortical neurons [2]; read-out: EC50 for LDH efflux, DIV-9 neurons, 95% CI 27.9–101 μM): 53.1 µM | EC50 (cerebrocortical neurons [3]): 82.2 µM | effect of NMDA alone on [Ca2+]i (cerebrocortical neurons [4]; 3 μM NMDA, DIV-2 neurons): did not affect [Ca^2+]i | EC50 (cerebrocortical neurons [4]; read-out: EC50 for NMDA-induced Ca2+ influx, DIV-4 neurons, absence of PbTx-2): 19.2 µM | EC50 (cerebrocortical neurons [4]; read-out: EC50 for NMDA-induced Ca2+ influx, DIV-9 neurons, absence of PbTx-2): 11.1 µM

NC1=N[C@H](O)[C@H]2[C@H]3O[C@]4(O)O[C@@H]([C@@H](O)[C@@]2(N1)[C@@H]4O)[C@]3(O)CO [TTX, tetrodotoxin]
effect on PbTx-2 enhanced neurite outgrowth (cerebrocortical neurons [1]): completely blocked | total neurite length, inhibitor alone (cerebrocortical neurons [1]): 185 ± 13.2 μm | total neurite length, inhibitor plus 30 nM PbTx-2 (cerebrocortical neurons [1]): 190.2 ± 10.7 μm

Nc1ncnc2c1cnn2-c1ccccc1 [PP3, 4-Amino-7-phenylpyrazol [3,4-d] pyrimidine]
mean open time, inhibitor plus PbTx-2 (NMDA receptors; [7]): 3.87 ± 0.15 ms | open probability (Po), inhibitor plus PbTx-2 (NMDA receptors; [7]): 0.013 ± 0.003 | mean open time, inhibitor alone (control) (NMDA receptors; [8]): 1.39 ± 0.09 ms | open probability (Po), inhibitor alone (control) (NMDA receptors; [8]): 0.0032 ± 0.0005

C=C(C=O)C[C@@H]1C[C@H](O)[C@]2(C)O[C@@H]3C[C@@H]4O[C@@H]5C[C@]6(C)O[C@]7(C)CC[C@@H]8O[C@@H]9C[C@]%10(C)O[C@@H]%11C(C)=CC(=O)O[C@H]%11C[C@H]%10O[C@H]9C[C@@H](C)[C@H]8O[C@H]7C[C@H]6O[C@H]5C/C=C\[C@H]4O[C@H]3C[C@H]2O1 [PbTx-2, Brevetoxin-2]
total neurite length (cerebrocortical neurons [1]): 265.8 ± 20.86 μm and 166.5 ± 17.9 μm | membrane potential after PbTx-2 (cerebrocortical neurons [5]): 29.3 ± 0.02 mV | membrane potential change (depolarization) (cerebrocortical neurons [5]): 0.2 ± 0.02 mV | EC50 (cerebrocortical neurons [5]; read-out: EC50 for increment in FMP blue fluorescence (membrane potential)): 0.0967 µM | phosphorylation of tyrosine 416 of Src (Src kinase): significant increase | Ca2+ influx pathway stimulated (cerebrocortical neurons [4]): primarily through NMDA receptors; also recorded: through both L-type calcium channels and NMDA receptors | effect of PbTx-2 alone on [Ca2+]i (cerebrocortical neurons [4]): did not alter [Ca^2+]i | effect of PbTx-2 alone on fluo-3 fluorescence (cerebrocortical neurons [4]): did not increase fluo-3 fluorescence | effect on NMDA-induced Ca2+ influx (cerebrocortical neurons [4]): robust potentiation | EC50 (cerebrocortical neurons [4]; read-out: EC50 for PbTx-2-stimulated increase in [Ca2+]i): 0.244 µM | [Na+]i increment over basal (cerebrocortical neurons [6]): 8.8 ± 1.8 mM | concentration-response profile of [Na+]i (cerebrocortical neurons [6]): hormetic profile | maximum [Na+]i (cerebrocortical neurons [6]): 16.9 ± 1.5 mM | maximum elevation of [Na+]i (concentration-response) (cerebrocortical neurons [6]): 36.6 ± 0.9 mM | EC50 (cerebrocortical neurons [6]; read-out: EC50 for PbTx-2-induced elevation of [Na+]i): 0.0433 µM | amplitude of single channel currents (NMDA receptors): 6.8 ± 0.4 pA | effect on membrane potential from single channel NMDA receptor currents (NMDA receptors): did not affect | open probability (Po) of NMDA receptors (NMDA receptors): 0.031 ± 0.008 | open time histogram, first time constant (area) (NMDA receptors): 1.6 (65%) | open time histogram, second time constant (area) (NMDA receptors): 4.1 (35%) | shut time histogram, first time constant (area) (NMDA receptors): 0.63 (45%) | shut time histogram, fourth time constant (area) (NMDA receptors): 1361 (11%) | shut time histogram, second time constant (area) (NMDA receptors): 10.0 (16%) | shut time histogram, third time constant (area) (NMDA receptors): 180 (28%)

C[C@]12N[C@H](Cc3ccccc31)c1ccccc12 [MK-801]
effect on PbTx-2 enhanced neurite outgrowth (cerebrocortical neurons [1]): abrogated | total neurite length, inhibitor plus 30 nM PbTx-2 (cerebrocortical neurons [1]): 83.1± 5.26 μm
